Test results published in BindingDB's records for doi:10.1111/cbdd.12587 (Jiangnan University, 2015).

molecular target: T1, Tyrosine-protein phosphatase non-receptor type 1 (Homo sapiens, UniProt P18031); assay: Colorimetric Assay; details: pH 6.5
T1 sequence (P18031 whole entry): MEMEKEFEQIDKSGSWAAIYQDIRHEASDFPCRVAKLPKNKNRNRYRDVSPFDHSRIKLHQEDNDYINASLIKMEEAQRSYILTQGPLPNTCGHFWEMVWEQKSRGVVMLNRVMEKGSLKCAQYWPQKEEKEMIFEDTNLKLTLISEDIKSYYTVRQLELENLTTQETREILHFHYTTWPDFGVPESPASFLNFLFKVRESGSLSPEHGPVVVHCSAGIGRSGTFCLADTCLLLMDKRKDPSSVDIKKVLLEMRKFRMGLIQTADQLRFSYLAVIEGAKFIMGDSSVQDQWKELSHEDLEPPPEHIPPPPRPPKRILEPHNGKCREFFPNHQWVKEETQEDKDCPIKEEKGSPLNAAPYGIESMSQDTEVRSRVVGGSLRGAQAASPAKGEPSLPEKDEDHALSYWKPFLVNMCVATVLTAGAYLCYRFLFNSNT
Procedure: Briefly, the tested compounds were solubilized in DMSO and serially diluted into concentrations for the inhibitory test. The assays were carried out in a final volume of 100 µL containing 50 mmol/L MOPS, pH 6.5, 2 mmol/L pNPP, 21 nmol/L GST-PTP1B or GST-TCPTP, and 2% DMSO, and the catalysis of pNPP was continuously monitored on a SpectraMax 340 microplate reader at 405 nm for 3 min at 30 °C

Compared with `O=C(c1ccc(-c2ccc(C(=O)N3CCC4(CC3)CC(c3ccccc3F)=NO4)cc2)cc1)N1CCC2(CC1)CC(c1ccccc1F)=NO2` [Biphenyl-4,4'-diylbis((3-(2-fluorophenyl)-1-oxa-2,8-diazaspiro[4.5]dec-2-en-8-yl)methanone) (6g)], `O=C(c1ccc(-c2ccc(C(=O)N3CCC4(CC3)CC(c3ccccc3)=NO4)cc2)cc1)N1CCC2(CC1)CC(c1ccccc1)=NO2` [Biphenyl-4,4'-diylbis((3-phenyl-1-oxa-2,8-diazaspiro[4.5]dec-2-en-8-yl)methanone) (6f)] is 1.7-fold lower in IC50: 4.96 µM for the first, 2.87 µM for the second.

`O=C(c1ccc(-c2ccc(C(=O)N3CCC4(CC3)CC(c3cccc(F)c3)=NO4)cc2)cc1)N1CCC2(CC1)CC(c1cccc(F)c1)=NO2` [Biphenyl-4,4'-diylbis((3-(3-fluorophenyl)-1-oxa-2,8-diazaspiro[4.5]dec-2-en-8-yl)methanone) (6h)] showed an IC50 of 5.33 µM.
